Key:
[1] = test system: AGS p-ERK; experiment: Cell assay for p-ERK (HTRF, Advance ERK phospho-T202/Y204 kit); format: cell-based, human; details: AGS cells (KRAS G12D), 3 hrs with compound, inhibition of p-ERK level
Experimental: AGS was purchased from ATCC, Article No.: CRL-1739; F12K was purchased from Gibco, Article No.: 21127-022; FBS was purchased from Gibco, Article No.: 10099-141C; the trypsin (containing EDTA) was purchased from Gibco, Article No.: 25200-072; DMSO was purchased from VWRAMRESCO, Article No.: 0231-500ML; the 96-well cell culture plate was purchased from Corning, Article No.: 3599; the white-bottom opaque 96-well plate was purchased from Cisbio, Article No.: 66PL96025; Advance ERK phospho-T202/Y204 kit was purchased from Cisbio, Article No.: 64AERPEH; the cell counter was purchased from CHEMOMETEC, model: NC-200; the microplate reader was purchased from PerkinElmer, model: Envison.
AGS, an endogenous human gastric adenocarcinoma cell line with KRAS^G12D mutation, was cultured in F12K+10% FBS medium. On the first day of the experiment, cells in logarithmic growth period were digested with trypsin (containing EDTA), collected and counted, and about 20,000 cells/well were inoculated in a 96-well cell culture plate and cultured overnight in an incubator with 5% CO2. 1000× compound stock solutions with gradient concentrations of 3.16 times were prepared with DMSO, and 200-fold diluted to 5× compound stock solutions with the above culture medium. The 5× compound stock solution was added to each cell culture well on the second day after cell inoculation, to give a final concentration of 1× and DMSO content of 0.1%. DMSO was used as experimental control. After adding the compound, the cells were continuously cultured for 3 hrs. Then, the culture medium in the well was removed, and 50 μl/well of cell lysis buffer (from Advanced ERK phospho-T202/Y204 kit, the same hereinafter) was added, and mixed uniformly. The cells were cultured for 30 min. Then 16 μl of the mixture was transferred to a white-bottom opaque 96-well plate, and 16 μl of the cell lysis buffer was added to an additional well and used as a blank. After that, 4 μl of p-ERK HTRF antibody mixed solution (from Advanced ERK Phos Pho-T202/Y204 Kit) was added to each well. After incubation for 4 hrs, the fluorescence value (RLU) of HTRF was read on a microplate reader. The inhibition rate of the compound on p-ERK level was calculated by the formula IR (%)=(RLU of control−RLU of compound)/(RLU of control−RLU of blank)×100%. The compound concentration and the corresponding inhibition rate on p-ERK level in the cells were fitted by using Prism 8 four-parameter method, and the IC50 value was calculated.

[2] = test system: AsPC-1 human pancreatic cancer cell with KRAS G12D mutation; experiment: Cell proliferation inhibition experiment, 3D CellTiter-Glo, AsPC-1; format: cell-based; details: AsPC-1 cells, 3D spheroid, 5 days
Description: (§1) AsPC-1 was purchased from ATCC, Article No.: CRL-1682; AGS was purchased from ATCC, Article No.: CRL-1739; RPMI1640 was purchased from Gibco, Article No.: 11875-093 2235123; F12K was purchased from Gibco, Article No.: 21127-022; FBS was purchased from Gibco, Article No.: 10099-141C; the trypsin (containing EDTA) was purchased from Gibco, Article No.: 25200-072; CellTiter Glo-3D was purchased from Progema, Article No.: G9683; the 384-well spheroid plate was purchased from Corning, Article No.: 3830; the white-bottom opaque 384-well plate was purchased from Corning, Article No.: 3570; the cell counter was purchased from CHEMOMETEC, model: NC-200; the microplate reader was purchased from PerkinElmer, model: Envison;
(§2) AsPC-1, an endogenous human pancreatic cancer cell AsPC-1 with KRAS^G12D mutation, was cultured in RPMI-1640 medium containing 10% FBS. AGS, a human gastric cancer cell line with KRAS^G12D mutation, was cultured in F-12K medium containing 10% FBS. Cells in logarithmic growth period were digested with trypsin (containing EDTA), collected and counted. 800 AsPC-1 cells/well or 400 […] were inoculated in a 384-well spheroid plate, and cultured overnight in an incubator with 5% CO2 to establish a 3D cell model. 1000× compound stock solutions with gradient concentrations of 3.16 times were prepared with DMSO, and 100-fold diluted to 10× compound stock solutions with the culture medium. The 10× compound stock solution was added to each cell culture well on the second day after cell inoculation, to give a final concentration of 1× and DMSO content of 0.1%. DMSO was used as the control, and the culture medium was used as the blank. After the compound was added, the cells were cultured for 5 days. 30 μl CellTiter-Glo working solution was added to each well, and mixed uniformly. The cells were incubated for 30 min, and allowed to stand at room temperature for 30 min. 40 μl of the mixture was transferred to a white-bottom opaque 384-well plate, and the luminescence was read on a microplate reader. The inhibition rate on cell proliferation was calculated by a formula: IR (%)=(RLU of control−RLU of compound)/(RLU of control−RLU of blank)×100%. The gradient concentrations of the compound and the corresponding inhibition rates were fitted by using XLFit four-parameter method, and the IC50 value was calculated. […] The results of some exemplary compounds are shown in Table 2 below (—means not tested).

[3] = test system: AGS human gastric cancer cell line with KRAS G12D mutation; experiment: Cell proliferation inhibition experiment, 3D CellTiter-Glo, AGS; format: cell-based; details: AGS cells, 3D spheroid, 5 days
Description: as §1, §2

Compound	IC50 [1] [µM]	IC50 [2] [µM]	IC50 [3] [µM]	IC50 ([1]; Homo sapiens) [µM]	IC50 ([2]; Homo sapiens, ASPC1, 120 h) [µM]	IC50 ([3]; Homo sapiens, 120 h) [µM]
6-((5S,5aS,6S,9R)-12-(((R)-1-(difluoromethylene)tetrahydro-1H-pyrrolizin-7a(5H)-yl)methoxy)-1-fluoro-5-(methyl-d3)-5a,6,7,8,9,10-hexahydro-5H-4-oxa-3,10a,11,13,14-pentaaza-6,9-methanonaphtho[1,8-ab]hepten-2-yl)-4-methyl-5-(trifluoromethyl)pyridine-2-amine [Z1295]	0.0139					
C#Cc1cccc2cccc(-c3nc4c5c(nc(OC[C@@]67CCCN6CCC7=C)nc5c3F)N3C[C@H]5CC[C@H](N5)[C@H]3[C@H](C)O4)c12 (single isomer, unassigned) [Z702]	0.0111	0.0519	0.0268			
C#Cc1cccc2cc(N)cc(-c3nc4c5c(nc(OC[C@@]67CCCN6CCC7=C(F)F)nc5c3F)N3C[C@H]5CC[C@H](N5)[C@H]3[C@H](C)O4)c12 (single isomer, unassigned) [Z960]				0.00025	0.00158	0.00396
C#Cc1cccc2cccc(-c3nc4c5c(nc(OC[C@@]67CCCN6C[C@H](F)C7)nc5c3F)N3C[C@H]5CC[C@H](N5)[C@H]3C(CC)O4)c12 (stereo partly drawn) [Z387, (5S,5aS,6S,9R)-5-ethyl-2-(8-alkynylnaphthalen-1-yl)-1-fluoro-12-(((2R,7aS)-2-fluorotetrahydro-1H-pyrrolizin-7a(5H)-yl)methoxy)-5a,6,7,8,9,10-hexahydro-5H-4-oxy-3,10a,11,13,14-pentaaza-6,9-methanonaphtho[1,8-ab]heptene]	0.0502	0.202	0.0733			
C=C1CN2CCCC2(COc2nc3c4c(nc(-c5cccc6cccc(Cl)c56)c(F)c4n2)OC(CC)[C@@H]2[C@@H]4CC[C@H](CN32)N4)C1 (stereo partly drawn) [Z596, (5S,5aS,6S,9R)-2-(8-chloronaphthalen-1-yl)-5-ethyl-1-fluoro-12-((2-methylenetetrahydro-1H-pyrrolizin-7a(5H)-yl)methoxy)-5a,6,7,8,9,10-hexahydro-5H-4-oxy-3,10a,11,13,14-pentaaza-6,9-methanonaphtho[1,8-ab]heptene]					0.411	0.268
C#Cc1c(F)ccc2cccc(-c3nc4c5c(nc(OC[C@@]67CCCN6CCC7=C)nc5c3F)N3C[C@H]5CC[C@H](N5)[C@H]3[C@H](C)O4)c12 [Z638, (5S,5aS,6S,9R)-2-(8-ethynyl-7-fluoronaphthalen-1-yl)-1-fluoro-5-methyl-12-(((S)-1-methylenetetrahydro-1H-pyrrolizin-7a(5H)-yl)methoxy)-5a,6,7,8,9,10-hexahydro-5H-4-oxa-3,10a,11,13,14-pentaaza-6,9-methanonaphtho[1,8-ab]heptene]	0.00779	0.032	0.0197			
C#Cc1c(F)ccc2cccc(-c3nc4c5c(nc(OC[C@]67CCCN6CCC7=C)nc5c3F)N3C[C@H]5CC[C@H](N5)[C@H]3[C@H](C)O4)c12 [Z639, (5S,5aS,6S,9R)-2-(8-ethynyl-7-fluoronaphthalen-1-yl)-1-fluoro-5-methyl-12-(((R)-1-methylenetetrahydro-1H-pyrrolizin-7a(5H)-yl)methoxy)-5a,6,7,8,9,10-hexahydro-5H-4-oxa-3,10a,11,13,14-pentaaza-6,9-methanonaphtho[1,8-ab]heptene]	0.0334	0.0937	0.113			
C#Cc1c(F)ccc2cccc(-c3nc4c5c(nc(OC[C@]67C[C@@H](F)CN6CCC7=C)nc5c3F)N3C[C@H]5CC[C@H](N5)[C@H]3[C@H](C)O4)c12 [Z689, (5S,5aS,6S,9R)-2-(8-ethynyl-7-fluoronaphthalen-1-yl)-1-fluoro-12-(((6R,7aR)-6-fluoro-1-methylenetetrahydro-1H-pyrrolizin-7a(5H)-yl)methoxy)-5-methyl-5a,6,7,8,9,10-hexahydro-5H-4-oxa-3,10a,11,13,14-pentaaza-6,9-methanonaphtho[1,8-ab]heptene]	0.00661	0.0174	0.0193			
C#Cc1cccc2cc(N)c(F)c(-c3nc4c5c(nc(OCC6(CN7CCOCC7)CC6)nc5c3F)N3C[C@H]5CC[C@H](N5)[C@H]3[C@H](C)O4)c12 [Z707, 5-ethynyl-3-fluoro-4-((5S,5aS,6S,9R)-1-fluoro-5-methyl-12-((1-(morpholinemethyl)cyclopropyl)methoxy)-5a,6,7,8,9,10-hexahydro-5H-4-oxa-3,10a,11,13,14-pentaaza-6,9-methanonaphtho[1,8-ab]hepten-2-yl)naphthalen-2-amine]	0.00095	0.00524	0.00744			
C#Cc1c(F)ccc2cccc(-c3nc4c5c(nc(OC[C@]67CCCN6CCC7=C)nc5c3F)N3C[C@H]5CC[C@H](N5)[C@H]3[C@@H](C(F)F)O4)c12 [Z736, (5S,5aS,6S,9R)-5-(difluoromethyl)-2-(8-ethynyl-7-fluoronaphthalen-1-yl)-1-fluoro-12-(((R)-1-methylenetetrahydro-1H-pyrrolizin-7a(5H)-yl)methoxy)-5a,6,7,8,9,10-hexahydro-5H-4-oxa-3,10a,11,13,14-pentaaza-6,9-methanonaphtho[1,8-ab]heptene]					0.254	0.389
C#Cc1c(F)ccc2cccc(-c3nc4c5c(nc(OC[C@]67CCCN6CCC7=C)nc5c3F)N3C[C@H]5CC[C@H](N5)[C@H]3C(CF)O4)c12 (stereo partly drawn) [Z746, (5aS,6S,9R)-2-(8-ethynyl-7-fluoronaphthalen-1-yl)-1-fluoro-5-(fluoromethyl)-12-(((R)-1-methylenetetrahydro-1H-pyrrolizin-7a(5H)-yl)methoxy)-5a,6,7,8,9,10-hexahydro-5H-4-oxa-3,10a,11,13,14-pentaaza-6,9-methanonaphtho[1,8-ab]heptene]				0.0171		
C#Cc1cccc2cc(N)cc(-c3nc4c5c(nc(OCC67CCCN6CC(=C(F)F)C7)nc5c3F)N3C[C@H]5CC[C@H](N5)[C@H]3[C@H](C)O4)c12 (stereo partly drawn) [Z747]				0.00037		
[2H]C([2H])([2H])[C@@H]1Oc2nc(-c3cc(N)cc(Cl)c3C(F)(F)F)c(F)c3nc(OC[C@]45CCCN4CCC5=C(F)F)nc(c23)N2C[C@H]3CC[C@H](N3)[C@@H]12 [Z1072, 3-chloro-5-((5S,5aS,6S,9R)-12-(((R)-1-(difluoromethylene)tetrahydro-1H-pyrrolizin-7a(5H)-yl)methoxy)-1-fluoro-5-(methyl-d3)-5a,6,7,8,9,10-hexahydro-5H-4-oxo-3,10a,11,13,14-pentaaza-6,9-methanonaphtho[1,8-ab]hepten-2-yl)-4-(trifluoromethyl) aniline]					0.00226	0.0005

— patent US20260109714A1, “PYRIMIDINE-FUSED RING COMPOUND, AND PREPARATION METHOD THEREFOR AND USE THEREOF” (GENFLEET THERAPEUTICS (SHANGHAI) INC., priority 2022, published 2026)
